According to patent US20250195530A1, “POLQ INHIBITORS” (ASTRAZENECA AB, priority 2022, published 2025):
Where two headings read alike, the source gives them in different places.

How the values were obtained:
DLD-1 cells = test: Inhibition of proliferation, DLD-1 BRCA2 wt control (Cell Titre Glo 3D); assay type: cell-based; conditions: Homo sapiens
Procedure, shortened: (§1)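 Luminescent Cell Titre Glo 3D readout, taken on day 12 for homologous-recombination-deficient DLD-1 BRCA2−/− and day 7 for the wild-type control, after compound refresh on day 6. Compounds spanned 10 μM to 0.51 nM in three-fold steps; IC50 defined as 50% reduction of average maximum signal.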

DLD-1 BRCA2−/− cells = test: Homologous recombination synthetic lethal inhibition of proliferation, DLD-1 BRCA2-/- (Cell Titre Glo 3D); assay type: cell-based; conditions: Homo sapiens, read-out: POLQ PD Prolif Lumin BRCA2 −/− mean pIC50 (converted)
Procedure, shortened: as §1

[1] = DLD-1, 168 h, DLD-1 BRCA2 wt cells, 7 days, read-out: POLQ PD Prolif Lumin DLD1 mean pIC50 (converted)
[2] = DLD-1, 288 h, DLD-1 BRCA2−/− cells, 12 days
[3] = DLD-1, DLD1 BRCA2 wt cells, mean, read-out: POLQ PD Prolif Lumin DLD1 mean PIC50 (converted)
[4] = DLD-1, DLD-1 BRCA2 −/− cells, mean

SMILES | IC50 (DLD-1 cells; [1]) [µM] | IC50 (DLD-1 BRCA2−/− cells; [2]) [µM] | IC50 (DLD-1 cells; [3]) [µM] | IC50 (DLD-1 BRCA2−/− cells; [4]) [µM]
CC1(Oc2ncnc3c2nc(-c2ccc(OCCN4C[C@@H]5C[C@H]4CN5)cc2Cl)n3Cc2ccccc2)CC1 [Example R19, 8-(4-(2-((1S,4S)-2,5-diazabicyclo[2.2.1]heptan-2-yl)ethoxy)-2-chlorophenyl)-9-benzyl-6-(1-methylcyclopropoxy)-9H-purine] | 3.98 | 0.2 |  | 
CC1(Oc2ncnc3c2nc(-c2ccc(OCCN4C[C@H]5C[C@@H]4CN5)cc2Cl)n3Cc2ccccc2)CC1 [Example R20, 8-(4-(2-((1R,4R)-2,5-diazabicyclo[2.2.1]heptan-2-yl)ethoxy)-2-chlorophenyl)-9-benzyl-6-(1-methylcyclopropoxy)-9H-purine] | 2.51 | 0.2 |  | 
CC1(Oc2ncnc3c2nc(-c2ccc(OCCN4C[C@@H]5CC[C@H]4CN5)cc2Cl)n3Cc2ccccc2)CC1 [Example R21, (1S,4S)-2-(2-(4-(9-benzyl-6-(1-methylcyclopropoxy)-9H-purin-8-yl)-3-chlorophenoxy)ethyl)-2,5-diazabicyclo[2.2.2]octane] | 1.58 | 0.316 |  | 
CC1(Oc2ncnc3c2nc(-c2ccc(OCCN4CCNCC45CC5)cc2Cl)n3Cc2ccccc2)CC1 [Example R22, 8-(4-(2-(4,7-diazaspiro[2.5]octan-4-yl)ethoxy)-2-chlorophenyl)-9-benzyl-6-(1-methylcyclopropoxy)-9H-purine] | 3.16 | 0.251 |  | 
CC1(Oc2ncnc3c2nc(-c2ccc(OCCCN4CCNCC4=O)cc2Cl)n3Cc2ccccc2)CC1 [Example S1, 1-(3-(4-(9-benzyl-6-(1-methylcyclopropoxy)-9H-purin-8-yl)-3-chlorophenoxy)propyl)piperazin-2-one] | > 10 | 0.0398 |  | 
CC1(Oc2ncnc3c2nc(-c2ccc(OCCCN4CCNC(=O)C4)cc2Cl)n3Cc2ccccc2)CC1 [Example S2, 4-(3-(4-(9-benzyl-6-(1-methylcyclopropoxy)-9H-purin-8-yl)-3-chlorophenoxy)propyl)piperazin-2-one] | 2.51 | 0.0501 |  | 
CC1(Oc2ncnc3c2nc(-c2ccc(OCCN4CCNCC4)cc2Cl)n3Cc2cc(C3CC3)ccn2)CC1 [Example S3, 8-(2-chloro-4-(2-(piperazin-1-yl)ethoxy)phenyl)-9-((4-cyclopropylpyridin-2-yl)methyl)-6-(1-methylcyclopropoxy)-9H-purine] | > 10 | 0.794 |  | 
CCc1ccnc(Cn2c(-c3ccc(OCCN4CCNCC4)cc3Cl)nc3c(OC4(C)CC4)ncnc32)c1 [Example S4, 8-(2-chloro-4-(2-(piperazin-1-yl)ethoxy)phenyl)-9-((4-ethylpyridin-2-yl)methyl)-6-(1-methylcyclopropoxy)-9H-purine] | > 10 | 0.794 |  | 
Cc1cnc(Cn2c(-c3ccc(CC(N)=O)cc3Cl)nc3c(OC4(C)CC4)ncnc32)s1 [Example T4, 2-(3-chloro-4-(6-(1-methylcyclopropoxy)-9-((5-methylthiazol-2-yl)methyl)-9H-purin-8-yl)phenyl)acetamide] |  |  | > 10 | 1.26
Cc1ccnc(Cn2c(-c3ccc(S(N)(=O)=O)cc3Cl)nc3c(OC4(C)CC4)ncnc32)c1 [Example T9, 3-chloro-4-(6-(1-methylcyclopropoxy)-9-((4-methylpyridin-2-yl)methyl)-9H-purin-8-yl)benzenesulfonamide] |  |  | > 10 | 0.501
CC1(Oc2ncnc3c2nc(-c2cccc(C(=O)O)c2Cl)n3Cc2cccc(Cl)c2)CC1 [Example T12, 2-chloro-3-(9-(3-chlorobenzyl)-6-(1-methylcyclopropoxy)-9H-purin-8-yl)benzoic acid] |  |  | > 10 | > 10
Cc1ccnc(Cn2c(-c3ccc(C(=O)O)cc3Cl)nc3c(OC4(C)CC4)ncnc32)c1 [Example T13, 3-chloro-4-(6-(1-methylcyclopropoxy)-9-((4-methylpyridin-2-yl)methyl)-9H-purin-8-yl)benzoic acid] |  |  | > 10 | > 10
Cc1ccnc(Cn2c(-c3ccc(C(N)=O)cc3Cl)nc3c(OC4(C)CC4)ncnc32)c1 [Example T14, 3-chloro-4-(6-(1-methylcyclopropoxy)-9-((4-methylpyridin-2-yl)methyl)-9H-purin-8-yl)benzamide] |  |  | > 10 | 0.501
CC1(Oc2ncnc3c2nc(-c2ccc(OCCO)cc2Cl)n3Cc2cc(Cl)ccn2)CC1 [Example T15, 2-(3-chloro-4-(9-((4-chloropyridin-2-yl)methyl)-6-(1-methylcyclopropoxy)-9H-purin-8-yl)phenoxy)ethan-1-ol] |  |  | > 10 | 0.1
Cc1ccnc(Cn2c(-c3ccc(S(C)(=O)=O)cc3Cl)nc3c(OC4(C)CC4)ncnc32)c1 [Example T16, 8-(2-chloro-4-(methylsulfonyl)phenyl)-6-(1-methylcyclopropoxy)-9-((4-methylpyridin-2-yl)methyl)-9H-purine] |  |  | > 10 | 0.794
Cc1ccnc(Cn2c(-c3ccc(NS(C)(=O)=O)cc3Cl)nc3c(OC4(C)CC4)ncnc32)c1 [Example T29, N-(3-chloro-4-(6-(1-methylcyclopropoxy)-9-((4-methylpyridin-2-yl)methyl)-9H-purin-8-yl)phenyl)methanesulfonamide] |  |  | > 10 | 1.26
CNCCOc1ccc(-c2nc3c(OC4(C)CC4)ncnc3n2Cc2ncc(C)s2)c(Cl)c1 [Example T34, 2-(3-chloro-4-(6-(1-methylcyclopropoxy)-9-((5-methylthiazol-2-yl)methyl)-9H-purin-8-yl)phenoxy)-N-methylethan-1-amine] |  |  | > 10 | 0.501
CC1(Oc2ncnc3c2nc(-c2cccc(OCC(=O)O)c2Cl)n3Cc2cccc(Cl)c2)CC1 [Example T41, 2-(2-chloro-3-(9-(3-chlorobenzyl)-6-(1-methylcyclopropoxy)-9H-purin-8-yl)phenoxy)acetic acid] |  |  | > 10 | > 7.94
Cc1ccnc(Cn2c(-c3ccc(CC(=O)O)cc3Cl)nc3c(OC4(C)CC4)ncnc32)c1 [Example T49, 2-(3-chloro-4-(6-(1-methylcyclopropoxy)-9-((4-methylpyridin-2-yl)methyl)-9H-purin-8-yl)phenyl)acetic acid] |  |  | > 10 | > 10
CC1(Oc2ncnc3c2nc(-c2ccc(OC4CNC4)cc2Cl)n3Cc2cc(Cl)ccn2)CC1 [Example T50, 8-(4-(azetidin-3-yloxy)-2-chlorophenyl)-9-((4-chloropyridin-2-yl)methyl)-6-(1-methylcyclopropoxy)-9H-purine] |  |  | 5.01 | 0.251
CNC(=O)c1ccc(-c2nc3c(OC4(C)CC4)ncnc3n2Cc2cc(C)ccn2)c(Cl)c1 [Example T52, 3-chloro-N-methyl-4-(6-(1-methylcyclopropoxy)-9-((4-methylpyridin-2-yl)methyl)-9H-purin-8-yl)benzamide] |  |  | > 10 | 0.501
CC(=O)Nc1ccc(-c2nc3c(OC4(C)CC4)ncnc3n2Cc2cc(C)ccn2)c(Cl)c1 [Example T53, N-(3-chloro-4-(6-(1-methylcyclopropoxy)-9-((4-methylpyridin-2-yl)methyl)-9H-purin-8-yl)phenyl)acetamide] |  |  | > 10 | 0.316
Cc1ccnc(Cn2c(-c3cccc(CC(N)=O)c3Cl)nc3c(OC4(C)CC4)ncnc32)c1 [Example T56, 2-(2-chloro-3-(6-(1-methylcyclopropoxy)-9-((4-methylpyridin-2-yl)methyl)-9H-purin-8-yl)phenyl)acetamide] |  |  | > 10 | 0.794
CC1(Oc2ncnc3c2nc(-c2ccc(OCCCO)cc2Cl)n3Cc2cc(Cl)ccn2)CC1 [Example T64, 3-(3-chloro-4-(9-((4-chloropyridin-2-yl)methyl)-6-(1-methylcyclopropoxy)-9H-purin-8-yl)phenoxy)propan-1-ol] |  |  | > 10 | 0.158
CNCCOc1ccc(-c2nc3c(OC4(C)CC4)ncnc3n2Cc2cc(Cl)ccn2)c(Cl)c1 [Example T67, 2-(3-chloro-4-(9-((4-chloropyridin-2-yl)methyl)-6-(1-methylcyclopropoxy)-9H-purin-8-yl)phenoxy)-N-methylethan-1-amine] |  |  | > 10 | 0.126
CNCc1ccc(-c2nc3c(OC4(C)CC4)ncnc3n2Cc2cc(C)ccn2)c(Cl)c1 [Example T68, 1-(3-chloro-4-(6-(1-methylcyclopropoxy)-9-((4-methylpyridin-2-yl)methyl)-9H-purin-8-yl)phenyl)-N-methylmethanamine] |  |  | > 10 | 1
Cc1ccnc(Cn2c(-c3ccc(OCCN)cc3Cl)nc3c(OC4(C)CC4)ncnc32)c1 [Example T69, 2-(3-chloro-4-(6-(1-methylcyclopropoxy)-9-((4-methylpyridin-2-yl)methyl)-9H-purin-8-yl)phenoxy)ethan-1-amine] |  |  | > 10 | 0.2
Cc1cnc(Cn2c(-c3ccc(O[C@H]4CCNC4)cc3Cl)nc3c(OC4(C)CC4)ncnc32)s1 [Example T70, (S)-2-((8-(2-chloro-4-(pyrrolidin-3-yloxy)phenyl)-6-(1-methylcyclopropoxy)-9H-purin-9-yl)methyl)-5-methylthiazole] |  |  | > 10 | 0.631
Cc1cnc(Cn2c(-c3ccc(OCCN(C)C)cc3Cl)nc3c(OC4(C)CC4)ncnc32)s1 [Example T72, 2-(3-chloro-4-(6-(1-methylcyclopropoxy)-9-((5-methylthiazol-2-yl)methyl)-9H-purin-8-yl)phenoxy)-N,N-dimethylethan-1-amine] |  |  | > 10 | 0.2
